# In patent publication US20230404995A1, “COMPOSITIONS AND METHODS FOR TREATING PULMONARY FIBROSIS” (priority 2020, published 2023):
# Experiments:
# [1] = tested on: A549 alveolar epithelial cells; assay: TGF-β induced epithelial-mesenchymal transition (EMT) in A549 cells: morphology and E-cadherin expression
# WI-38 lung fibroblasts [2] = assay: Growth factor induced hyper-proliferation of WI-38 lung fibroblasts
# [3] = tested on: primary human bronchial epithelial (HBE) cells; assay: Cell viability of HBE cells (Cell Titer Blue cell viability kit); type: cell-based; details: QA 0.039-10 μM, 24 hours, FIG. 3
# Method: A cell viability study was carried out on HBE cells using Cell Titer Blue cell viability kit. Briefly, cells were treated with varying concentrations of QA (0.039-10 μM), for 24 hours, and media was used as a control. Fluorescence readings were taken at 540/590 nm using a Spark 10M Plate Reader (Tecan, Switzerland).
# HBE cells = assay: TGF-β induced epithelial-mesenchymal transition (EMT) in HBE cells, cell imaging; type: cell-based, human; details: TGF-β 10 ng/mL, QA 0.5, 1, 2.5 and 5 μM tested, 24 and 48 hours, FIG. 4
# Method: For TGF-β induced epithelial mesenchymal transition (EMT) images, HBE cells (50,000 cells/well) were seeded in a 6-well culture plate. Next day, all treatments (except the medium control) were starved with replacement of growth factor-absent media. After 24 hours incubation, the QA treatments were administered: 0.5, 1, 2.5, and 5 μM. Each treatment also included 10 ng/mL of TGF-β. The remaining 2 wells were treated with regular media and TGF-β as the negative control and positive control, respectively. Individual images of the cells were taken with an EVOS-FL Cell imaging fluorescence microscope (Thermo Fisher Scientific, Waltham, MA, USA) after 24 and 48 hours.
# EMT is presented by morphological changes following TGF-beta treatment, and subsequent reversal with QA treatment.
# WI-38 lung fibroblasts [4] = assay: TGF-β induced collagen production in WI-38 lung fibroblasts (immunofluorescent imaging); type: cell-based; details: serum starved WI-38, TGF-β 5 ng/ml, 48 hours, quinacrine 2.5 μM; FIG. 2D
# Method: It is well established that during fibrotic diseases, fibroblasts and epithelial cells are transformed in myofibroblasts (mesenchymal cells), which secrete excess amount of extracellular matrix (ECM), one of the major components being interstitial collagen at the site of tissue injury. Serum starved WI-38 lung fibroblasts were activated with TGF-β (5 ng/ml; 48 hours), and QA's efficacy's in inhibiting collagen production due to transition of fibroblasts in collagen-secreting fibroblasts was tested.
smiles,measurement,setting,value
"CCN(CC)CCCC(C)Nc1c2ccc(Cl)cc2nc2ccc(OC)cc12 (stereo not shown) [QA, quinacrine]","E-cadherin expression, western blot (compared to β-actin)","[1]; A549 cells co-incubated with QA 2.5 μM and TGF-β 5 ng/ml, TGF-β alone gave 40% reduction, FIGS. 1C-D",completely restored
same,"E-cadherin expression, immunofluorescence","[1]; A549 cells, TGF-β 5 ng/ml, 48 h, simultaneous QA 2.5 μM, FIG. 1B",restored
same,"cell morphology, protection against TGF-β induced EMT","[1]; serum starved A549 cells, TGF-β 5 ng/ml with simultaneous QA 2.5 μM, FIG. 1A",reversing fibroblastic morphology induced by TGF-β treatment
same,FGF induced hyper-proliferation,"WI-38 lung fibroblasts [2]; WI-38, FGF 10 ng/ml, 72 hours, FIG. 2C",dose-dependent reduction
same,PDGF-BB induced hyper-proliferation,"WI-38 lung fibroblasts [2]; WI-38, PDGF-BB 10 ng/ml, 72 hours, FIG. 2B",dose-dependent reduction
same,fibroblast proliferation in the presence of TGF-β,"WI-38 lung fibroblasts [2]; WI-38, TGF-β 10 ng/ml, 48 hours, FIG. 2A",dose-dependent reduction
same,viability (cytotoxicity of the QA doses used),"WI-38 lung fibroblasts [2]; WI-38 lung fibroblasts, all doses of QA used in the proliferation study",> 90%
same,cell viability,[3],> 85%
same,lowest concentrations that effectively inhibited TGF-beta induced EMT (morphological changes),HBE cells,0.5-1 μM
same,collagen expression,WI-38 lung fibroblasts [4],significantly reduced
